Experiment [1] has as its system LPS-stimulated AM. As to the kind of experiment: TGF-β1 release by ELISA, AM. Format: cell-based, human. As to conditions: acid-treated supernatants; preincubated 24 hour 20 ng/ml, LPS 20 h; medium-preincubated 109±23. As for the experimental part: (§1) FIG. 6 depicts the effect of IL-9, IL-4 and IFN-γ on the release of IL-10 (A) and TGF-β1 (B) by LPS-stimulated PBM and AM cultured under the same conditions as described in FIG. 5 Example I. D. TGF-β1 was determined by ELISA in crude supernatants (untreated supernatants) and in ethanol-acid (acid-treated) supernatants, using a kit from Biosource for determining TGF-β1 release from its latent complexes. An ELISA kit from CLB (Amsterdam, The Netherlands) was used to determine IL-10 following the manufacturer's protocol. […] Data are means±SEM (n=3). *P<0.05 compared with unstimulated cells; **P<0.05 compared with cells preincubated with medium.
(§2) Cells (1×10^6 PBM or 0.5×10^6 AM/well) were distributed in 24-well plates (Falcon), preincubated in cRPMI for 24 hours at 37° C., 5% CO2 with cytokines (IL-9, IL-4 (20 ng/ml) and IFN-γ (200 U/ml)) and stimulated for 20 hours with 1 μg/ml LPS without removing cytokines. […] Release of TNF-α was quantified by a cytotoxicity bioassay using WEHI 164 cells clone 13, as previously described (Espevik and Nissen-Meyer, J. Immunol. Methods, 95:99-105 (1986) incorporated herein by reference), using rhTNF-α from Boehringer as a standard. IL-8, IL-10 and TGF-β1 concentrations were determined by ELISA. A kit from CLB (Amsterdam, The Netherlands) was used for IL-10 quantitation, following the manufacturer's protocol. […]
Background: An ELISA detects its analyte on a solid surface through an enzyme-linked reagent.

The subject of experiment [2] is LPS-stimulated AM. As to the kind of experiment: IL-10 release by ELISA, AM. It is filed as cell-based, human. The note with it: preincubated 24 hour, LPS 20 h. As for the experimental part:
as §1, §2

Results on two molecules are retold here after patent US20030091533A1, “Regulation of mononuclear phagocyte stimulation” (priority 2001, published 2003).

For “IL-9: Human IL-9 purified from SF9 insect cell cultures infected with recombinant baculovirus”, the “production of TGF-β1 by LPS-stimulated AM” value in the experiment on LPS-stimulated AM [1] is given as 366+21 pg/ml.

B1: IFN-γ: Interferon gamma, primes mononuclear phagocytes, 200 U/ml (protein, UniProt P01579 24-161, looked up)
Interferon gamma: QDPYVKEAENLKKYFNAGHSDVADNGTLFLGILKNWKEESDRKIMQSQIVSFYFKLFKNFKDDQSIQKSVETIKEDMNVKFFNSNKKKRDDFEKLTNYSVTDLNVQRKAIHELIQVMAELSPAAKTGKRKRSQMLFRG
Turning to B1, the “IL-10 release by LPS-stimulated AM” value in the experiment on LPS-stimulated AM [2] was “decreased”.
